Test results as given in the supplement of paper PMC11451515.

System: NOMO1
Test: cell viability relative to DMSO control; higher = less cytotoxic
Conditions: 48 h
In short: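 Viability was expressed as a per-plate percentage of DMSO wells, with cell-free wells as background. Leukemia cells (NOMO1 or SEM at 500 cells/well, P12-Ichikawa at 1000 cells/well) were adapted for at least four passages in each medium and seeded in 1536-well plates (5 μl). Library compounds in DMSO were pin-dosed over an 11-point threefold series from 47 μM to 0.79 nM, and CellTiter-Glo One luminescence was read after 48 h at 37°C.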

[1] = HPLM + 10% dialyzed FBS, 0.000781 µM
[2] = HPLM + 10% dialyzed FBS, 0.00234 µM
[3] = HPLM + 10% dialyzed FBS, 0.00702 µM
[4] = HPLM + 10% dialyzed FBS, 0.0211 µM
[5] = HPLM + 10% dialyzed FBS, 0.0632 µM
[6] = HPLM + 10% dialyzed FBS, 0.19 µM
[7] = HPLM + 10% dialyzed FBS, 0.569 µM
[8] = HPLM + 10% dialyzed FBS, 1.71 µM
[9] = HPLM + 10% dialyzed FBS, 5.12 µM
[10] = HPLM + 10% dialyzed FBS, 15.4 µM
[11] = HPLM + 10% dialyzed FBS, 46.1 µM
[12] = RPMI 5 mM glucose + 10% FBS, 0.000781 µM
[13] = RPMI 5 mM glucose + 10% FBS, 0.00234 µM
[14] = RPMI 5 mM glucose + 10% FBS, 0.00702 µM
[15] = RPMI 5 mM glucose + 10% FBS, 0.0211 µM
[16] = RPMI 5 mM glucose + 10% FBS, 0.0632 µM
[17] = RPMI 5 mM glucose + 10% FBS, 0.19 µM
[18] = RPMI 5 mM glucose + 10% FBS, 0.569 µM
[19] = RPMI 5 mM glucose + 10% FBS, 1.71 µM
[20] = RPMI 5 mM glucose + 10% FBS, 5.12 µM
[21] = RPMI 5 mM glucose + 10% FBS, 15.4 µM
[22] = RPMI 5 mM glucose + 10% FBS, 46.1 µM
[23] = RPMI 5 mM glucose + 10% dialyzed FBS, 0.000781 µM
[24] = RPMI 5 mM glucose + 10% dialyzed FBS, 0.00234 µM
[25] = RPMI 5 mM glucose + 10% dialyzed FBS, 0.00702 µM
[26] = RPMI 5 mM glucose + 10% dialyzed FBS, 0.0211 µM
[27] = RPMI 5 mM glucose + 10% dialyzed FBS, 0.0632 µM
[28] = RPMI 5 mM glucose + 10% dialyzed FBS, 0.19 µM
[29] = RPMI 5 mM glucose + 10% dialyzed FBS, 0.569 µM
[30] = RPMI 5 mM glucose + 10% dialyzed FBS, 1.71 µM
[31] = RPMI 5 mM glucose + 10% dialyzed FBS, 5.12 µM
[32] = RPMI 5 mM glucose + 10% dialyzed FBS, 15.4 µM
[33] = RPMI 5 mM glucose + 10% dialyzed FBS, 46.1 µM

Row | Structure (SMILES) | cell viability [1] [%] | cell viability [2] [%] | cell viability [3] [%] | cell viability [4] [%] | cell viability [5] [%] | cell viability [6] [%] | cell viability [7] [%] | cell viability [8] [%] | cell viability [9] [%] | cell viability [10] [%] | cell viability [11] [%] | cell viability [12] [%] | cell viability [13] [%] | cell viability [14] [%] | cell viability [15] [%] | cell viability [16] [%] | cell viability [17] [%] | cell viability [18] [%] | cell viability [19] [%] | cell viability [20] [%] | cell viability [21] [%] | cell viability [22] [%] | cell viability [23] [%] | cell viability [24] [%] | cell viability [25] [%] | cell viability [26] [%] | cell viability [27] [%] | cell viability [28] [%] | cell viability [29] [%] | cell viability [30] [%] | cell viability [31] [%] | cell viability [32] [%] | cell viability [33] [%]
1 | Cc1cc(Nc2nc(N[C@@H](C)c3ncc(F)cn3)ncc2Cl)n[nH]1 | 89.6 | 95 | 113 | 124 | 113 | 113 | 109 | 63.3 | 19.9 | 19.5 | 28.5 | 114 | 126 | 117 | 124 | 114 | 123 | 125 | 116 | 98.4 | 19.5 | 15.7 | 108 | 119 | 105 | 127 | 127 | 120 | 126 | 135 | 112 | 38.3 | 23.8
2 | CN(C/C=C/C#CC(C)(C)C)Cc1cccc2ccccc12 | 93.8 | 125 | 104 | 94.1 | 108 | 104 | 108 | 96.4 | 98 | 92.4 | 106 | 86.4 | 96.7 | 86.2 | 85.1 | 93.2 | 91.8 | 103 | 87.2 | 90 | 94.5 | 100 | 87.9 | 82.4 | 95.8 | 91.6 | 107 | 90.1 | 93.9 | 91.6 | 90.2 | 98.8 | 109
3 | C1CCC(C(CC2CCCCN2)C2CCCCC2)CC1 (stereo not drawn) | 121 | 111 | 127 | 111 | 140 | 127 | 132 | 150 | 131 | 118 | 5.65 | 108 | 116 | 133 | 144 | 116 | 122 | 132 | 115 | 131 | 121 | 6.9 | 110 | 108 | 124 | 107 | 114 | 130 | 114 | 131 | 116 | 98.1 | 6.09
4 | Oc1ccc(/C=C/c2cc(O)cc(O)c2)cc1 | 108 | 112 | 115 | 111 | 107 | 114 | 92.4 | 117 | 97.5 | 50.1 | 10.4 | 109 | 98.8 | 111 | 105 | 98 | 102 | 99.8 | 107 | 95.3 | 103 | 15.1 | 89.7 | 106 | 98.1 | 104 | 103 | 105 | 99.2 | 97.4 | 102 | 83.4 | 18.4
5 | CC1(C)CCC(=C(CN2CCN(CC2)C3=CC=C(C=C3)C(=O)N[S+]([O-])(=O)C4=CC(=C(N[C@H](CCN5CCOCC5)CSC6=CC=CC=C6)C=C4)[S+]([O-])(=O)C(F)(F)F)\C1)/C7=CC=C(Cl)C=C7 | 124 | 132 | 123 | 128 | 116 | 112 | 96.7 | 57.1 | 49.2 | 39.2 | 43.2 | – | – | – | – | – | – | – | – | – | – | – | 116 | 125 | 118 | 117 | 90.1 | 78.9 | 61.7 | 23.9 | 24.7 | 29.9 | 22.5
6 | CC(C)[C@@H](C[S+](=O)([O-])C(C)C)N1C(=O)[C@@](C)(CC(=O)O)C[C@H](c2cccc(Cl)c2)[C@H]1c1ccc(Cl)cc1 | 122 | 115 | 129 | 143 | 140 | 97.9 | 36.4 | 35.6 | 31.2 | 33.6 | 29.3 | 128 | 106 | 113 | 109 | 121 | 128 | 111 | 64.8 | 24.5 | 19.5 | 22.2 | 117 | 98.5 | 108 | 112 | 145 | 132 | 98.5 | 65.9 | 47.1 | 25.2 | 19.1
7 | COc1cc(Nc2ncc(F)c(Nc3ccc4c(n3)NC(=O)C(C)(C)O4)n2)cc(OC)c1OC | 93.8 | 105 | 119 | 127 | 139 | 138 | 120 | 106 | 53.3 | 11.4 | 6.39 | 104 | 111 | 118 | 118 | 125 | 126 | 128 | 106 | 73.9 | 13.4 | 7.45 | 109 | 99.7 | 107 | 106 | 105 | 116 | 128 | 103 | 82.7 | 23.9 | 6.81
8 | CC1(C)C(=O)N(CCN2CCC(C(=O)c3ccc(F)cc3)CC2)c2ccccc21 | 117 | 115 | 120 | 141 | 151 | 138 | 162 | 128 | 119 | 129 | 88.7 | 120 | 124 | 120 | 131 | 141 | 142 | 128 | 133 | 117 | 122 | 82.1 | 116 | 120 | 134 | 136 | 134 | 134 | 148 | 132 | 120 | 113 | 84.1
